Each structure is given as a SMILES string. Values after ≈ are worked out from the molar mass of the structure shown.

Type in all cases: cell-based
One assay relates to S. lutea. Kind of assay: antibacterial activity vs. S. lutea. As to conditions: level relative to phthalimidopenicillin. On the procedure:
The compound was dissolved in methylene chloride and the solution extracted with 5% sodium bicarbonate. The aqueous extract was re-acidified to pH 2.5 and re-extracted with methylene chloride.
The crystalline trans acid in methylene chloride, was shaken with 5% bicarbonate for 5 min. The aqueous phase was then separated, acidified to pH 4.5 - 5.0 and extracted with methylene chloride. It was then acidifid to pH 2.5 and extracted twice with methylene chloride and twice with chloroform.

A further assay deals with E. coli Juhl. Briefly: MIC, antibacterial activity. As to conditions: Escherichia coli; at 10^-^4 dil'n.
In another assay the test system is S. aureus. Kind of assay: MIC, antibacterial activity. As to conditions: Staphylococcus aureus.
The subject of another assay is Ps. aeruginosa. Briefly: MIC, antibacterial activity. Particulars: Pseudomonas aeruginosa; at 10^-^4 dil'n.
Another assay concerns E. coli. Briefly: MIC, antibacterial activity. Particulars: Escherichia coli; at 10^-^4 dil'n.
Another assay concerns Pr. morganii. Kind of assay: MIC, antibacterial activity. As to conditions: Morganella morganii; at 10^-^4 dil'n.
The test system of another assay is S. aureus Smith. Kind of assay: MIC, antibacterial activity. Particulars: Staphylococcus aureus.
For another assay, the system named is S. aureus Meth. Resist. Briefly: MIC, antibacterial activity. As to conditions: Staphylococcus aureus.
In the next assay the test system is Ser. marcescens. Briefly: MIC, antibacterial activity. Particulars: Serratia marcescens; at 10^-^4 dil'n.
A further assay concerns Pr. mirabilis. Briefly: MIC, antibacterial activity. As to conditions: Proteus mirabilis; at 10^-^4 dil'n.
The test system of another assay is S. aureus BX-1633-2. Kind of assay: MIC, antibacterial activity. As to conditions: Staphylococcus aureus.
In a further assay the test system is K. pneumoniae. Kind of assay: MIC, antibacterial activity. As to conditions: Klebsiella pneumoniae; at 10^-^4 dil'n.
The subject of another assay is Sal. enteritidis. Briefly: MIC, antibacterial activity. As to conditions: Salmonella enterica, at 10^-^4 dil'n.
Another assay concerns D. pneumoniae. Kind of assay: MIC, antibacterial activity. As to conditions: Streptococcus pneumoniae; + 5% serum; 45% AAB at 10^-^3 dil'n + 50% Medium Shown. The text has this: (§1) *45% AAB at 10^-^3 dil'n + 50% Medium Shown
The test system of a further assay is Str. pyogenes. Briefly: MIC, antibacterial activity. Particulars: Streptococcus pyogenes; + 5% serum; 45% AAB at 10^-^3 dil'n + 50% Medium Shown.
Source text: as §1

Assay [1] deals with P. morganii and Ps. aeruginosa. Briefly: MIC of ampicillin versus resistant or β-lactamase producing bacteria, alone and with substituted azetidine-2-one. Particulars: read-out: Minimum Inhibitory Concentration of ampicillin.
The nature of assay [2]: antibacterial activity (organism not stated). As to conditions: at levels of 250 mcg./ml.

`CC1(C)O[C@@H]2[C@H](N3C(=O)c4ccccc4C3=O)C(=O)N2[C@H]1C(=O)O` [6-phthalimido oxapenicillin]: the “antibacterial activity relative to phthalimidopenicillin” value in the assay on S. lutea is recorded as “one-tenth the level of phthalimidopenicillin”.

As for `CC1(C)S[C@@H]2[C@H](NC(=O)Cc3ccccc3)C(=O)N2[C@H]1C(=O)O` [Penicillin G], the MIC in the assay on E. coli Juhl was 32 µg/mL (≈ 95.7 µM); against S. aureus (at 10^-^2 dil'n), above 125 µg/mL; in the assay on S. aureus (at 10^-^3 dil'n), 63 µg/mL (≈ 188 µM); in the assay with Ps. aeruginosa, above 125 µg/mL; in the assay on E. coli, 125 µg/mL (≈ 374 µM); with Pr. morganii, above 125 µg/mL. In addition, the MIC is 0.016 µg/mL (≈ 0.0478 µM) in the assay with S. aureus Smith (at 10^-^4 dil'n); 0.06 µg/mL in the assay on S. aureus Smith (at 10^-^4 dil'n + 5% serum); 125 µg/mL (≈ 374 µM) in the assay on S. aureus Meth. Resist.; above 125 µg/mL in the assay on Ser. marcescens; 1 µg/mL (≈ 2.99 µM) against Pr. mirabilis; above 125 µg/mL in the assay on S. aureus BX-1633-2 (BX16332, at 10^-^2 dil'n). The MIC in the assay on S. aureus BX-1633-2 (BX16332, at 10^-^3 dil'n) worked out at 125 µg/mL (≈ 374 µM); in the assay on K. pneumoniae, 2 µg/mL (≈ 5.98 µM); in the assay with Sal. enteritidis, 0.13 µg/mL (≈ 0.389 µM); in the assay with D. pneumoniae, 0.004 µg/mL; with Str. pyogenes it was 0.004 µg/mL.

Take `CC1(C)S[C@@H]2[C@H](NC(=O)[C@H](N)c3ccccc3)C(=O)N2[C@H]1C(=O)O` [ampicillin]: the MIC in [1] was 500 to 1000 µg/mL.

With `CC(C)=C(C(=O)O)N1C(=O)[C@H]2N=C(Cc3ccccc3)O[C@H]21` [oxazoline carboxylic acid, 2-benzyl-6-(1'-carboxy-2'-methylprop-1'-enyl)-1-oxa-3,6-diaza-4S,5R-bicyclo [3,2,0] hept-2-en-7-one], in [2], the “activity as an antibacterial agent” value is “inactive”.
